From patent publication US8889826B2, “Peptide antibiotics and methods for making same” (priority 2004, dated 2014)

Experiments:
[1] = system: Pseudomonas aeruginosa, ATCC 27853; assay: MIC by serial twofold broth dilution, Pseudo; type: cell-based; set-up: unit not given here; conditions: Mueller Hinton broth
Excerpt: (§1) The antibacterial activities of certain new compounds are indicated in Table 4 as their minimum inhibitory concentrations (MICs) against Escherichia coli, Staphylococcus aureus, and Pseudomonas aeruginosa. MICs can be determined by the conditions disclosed in Table 4, as well as in Jarolmen, H. et al., “Activity of Minocycline Against R-Factor Carrying Enterobacteriaceae,” Infectious Immunity, Vol. 1, No. 4, pp. 321-326, 1970, the disclosure of which is incorporated herein by reference.

[2] = system: Escherichia coli, ATCC #26; assay: MIC by serial twofold broth dilution, E. coli; type: cell-based; set-up: unit not given here; conditions: Mueller Hinton broth
Excerpt: as §1

[3] = human, in vivo; cited from earlier work
[4] = system: Staphylococcus aureus Smith; assay: MIC by serial twofold broth dilution, Staph; type: cell-based; set-up: unit not given here; conditions: Mueller Hinton broth
Excerpt: as §1

Substance | Pseudo MIC [1] | E. coli MIC [2] | neurotoxicity, overall incidence [3] [%] | Staph MIC [4]
Colistin [reference compound] | 0.6 | 0.6 | 7.3 | >20
Cyclohexylcarbamyl-[Ile^7]-Polymyxin Decapeptide [Compound 48] | 0.6 | 0.6 |  | 
N-(n-Decanoyl)phenylalanyl-colistin decapeptide [Compound 52] | 2.5 | 1.25 |  | 2.5
P-Toluenesulfonyl-Colistin decapeptide [Compound 53] | 0.6 | 1.25 |  | >20
Polymyxin B1 [reference compound] | 0.6 | 0.6 |  | 10
Polymyxin B [reference compound] | 0.6 | 0.6 |  | >10
[Ile^7]-polymyxin B1 [reference compound] | 1.25 | 0.6 |  | 20
n-Octylcarbamyl-colistin decapeptide [Compound 51] | 0.6 | 1.25 |  | 20
